pIC50: −log10 of the molar value. Converted amounts (≈) assume the structure as drawn. The source made the active and inactive calls. The rule behind the calls is not given here.
Tests used:
[1] = Hemolytic activity in mouse RBC at […] after 1 hr relative to control; format: ADME, cell-based, Erythrocyte; conditions: red blood cells (erythrocytes), read-out: Activity; also: tested at 0.48 µg/mL
[2] = Selectivity index, ratio of CC50 for human A549 cells to MIC for Aspergillus nidulans ATCC 38163; format: toxicity; conditions: read-out: Selectivity Index
[3] = system: Aspergillus nidulans; assay: Antifungal activity against Aspergillus nidulans ATCC 38163 measured after 48 hrs by CLSI M38-A2 protocol based method; format: functional; conditions: ATCC 38163, 48 h
[4] = Selectivity index, ratio of CC50 for human A549 cells to MIC for fluconazole/ITC-resistant Candida albicans ATCC MYA-1003; format: toxicity; conditions: read-out: Selectivity Index
[5] = Selectivity index, ratio of compound concentration showing <20 to <30% hemolysis in mouse RBC to MIC for fluconazole/ITC-resistant Candida albicans ATCC MYA-1237; format: toxicity; conditions: mouse red blood cells (RBC), read-out: Selectivity Index
[6] = system: A549; assay: Cytotoxicity against human A549 cells after 24 hrs by resazurin based assay; format: cell-based; conditions: a549, 24 h
[7] = Selectivity index, ratio of compound concentration showing <20 to <30% hemolysis in mouse RBC to MIC for Candida parapsilosis ATCC 22019; format: toxicity; conditions: mouse red blood cells (RBC), read-out: Selectivity Index
[8] = system: Candida albicans; assay: Antifungal activity against fluconazole/ITC-resistant Candida albicans ATCC MYA-1237 measured after 48 hrs by CLSI M27-A3 protocol based method; format: functional; conditions: ATCC MYA-1237, 48 h
[9] = Selectivity index, ratio of CC50 for human A549 cells to MIC for fluconazole/ITC-resistant Candida albicans ATCC 10231; format: toxicity; conditions: read-out: Selectivity Index
[10] = system: BEAS-2B; assay: Cytotoxicity against human BEAS2B cells after 24 hrs by resazurin based assay; format: cell-based
[11] = Hemolytic activity in mouse RBC at 7.8 ug/ml after 1 hr relative to control; format: ADME, cell-based, Erythrocyte; conditions: red blood cells (erythrocytes), read-out: Activity
[12] = system: Candida parapsilosis; assay: Antifungal activity against Candida parapsilosis ATCC 22019 measured after 48 hrs by CLSI M27-A3 protocol based method; format: functional; conditions: Lodderomyces parapsilosis, ATCC 22019, 48 h
[13] = Selectivity index, ratio of CC50 for human A549 cells to MIC for fluconazole/ITC-resistant Candida albicans ATCC 90819; format: toxicity; conditions: read-out: Selectivity Index
[14] = system: Enterococcus; assay: Antibacterial activity against vancomycin-resistant Enterococcus; format: functional, organism-based
[15] = Selectivity index, ratio of compound concentration showing <20 to <30% hemolysis in mouse RBC to MIC for fluconazole/ITC-resistant Candida albicans ATCC 10231; format: toxicity; conditions: red blood cells (erythrocytes), read-out: Selectivity Index
[16] = Selectivity index, ratio of compound concentration showing <20 to <30% hemolysis in mouse RBC to MIC for Aspergillus nidulans ATCC 38163; format: toxicity; conditions: mouse red blood cells (RBC), read-out: Selectivity Index
[17] = system: Candida albicans; assay: Antifungal activity against fluconazole/ITC-resistant Candida albicans ATCC MYA-1003 measured after 48 hrs by CLSI M27-A3 protocol based method; format: functional; conditions: ATCC MYA-1003, 48 h
[18] = Selectivity index, ratio of CC50 for human A549 cells to MIC for fluconazole/ITC-resistant Candida albicans ATCC MYA-1237; format: toxicity; conditions: read-out: Selectivity Index
[19] = system: Aspergillus flavus; assay: Antifungal activity against Aspergillus flavus ATCC MYA-3631 measured after 48 hrs by CLSI M38-A2 protocol based method; format: functional; conditions: ATCC MYA-3631, 48 h
[20] = system: Candida albicans; assay: Antifungal activity against fluconazole/ITC-susceptible Candida albicans ATCC MYA-2876 measured after 48 hrs by CLSI M27-A3 protocol based method; format: functional; conditions: ATCC MYA-2876, 48 h
[21] = target: Voltage-gated inwardly rectifying potassium channel KCNH2 (Homo sapiens, UniProt Q12809); assay: Inhibition of [3H]-dofetilide binding to human ERG expressed in HEK293 cell membranes measured after 1 hr by liquid scintillation counting method
[22] = Selectivity index, ratio of compound concentration showing <20 to <30% hemolysis in mouse RBC to MIC for fluconazole/ITC-susceptible Candida albicans ATCC MYA-2310; format: toxicity; conditions: mouse red blood cells (RBC), read-out: Selectivity Index
[23] = Selectivity index, ratio of compound concentration showing <20 to <30% hemolysis in mouse RBC to MIC for Candida glabrata ATCC 2001; format: toxicity; conditions: mouse red blood cells (RBC), read-out: Selectivity Index
[24] = Hemolytic activity in mouse RBC at […] ug/ml after 1 hr relative to control; format: ADME, cell-based, Erythrocyte; conditions: red blood cells (erythrocytes), read-out: Activity
[25] = system: Pichia kudriavzevii; assay: Antifungal activity against Candida krusei ATCC 6258 measured after 48 hrs by CLSI M27-A3 protocol based method; format: functional; conditions: ATCC 6258, 48 h
[26] = system: Staphylococcus aureus; assay: Antibacterial activity against methicillin-resistant Staphylococcus aureus; format: functional, organism-based
[27] = Selectivity index, ratio of CC50 for human A549 cells to MIC for Candida glabrata ATCC 2001; format: toxicity; conditions: read-out: Selectivity Index
[28] = Selectivity index, ratio of compound concentration showing <20 to <30% hemolysis in mouse RBC to MIC for Candida krusei ATCC 6258; format: toxicity; conditions: mouse red blood cells (RBC), read-out: Selectivity Index
[29] = system: Listeria monocytogenes; assay: Antibacterial activity against Listeria monocytogenes; format: functional, organism-based
[30] = Hemolytic activity in mouse RBC at 1.95 ug/ml after 1 hr relative to control; format: ADME, cell-based, Erythrocyte; conditions: red blood cells (erythrocytes), read-out: Activity
[31] = Hemolytic activity in mouse RBC at 3.9 ug/ml after 1 hr relative to control; format: ADME, cell-based, Erythrocyte; conditions: red blood cells (erythrocytes), read-out: Activity
[32] = Selectivity index, ratio of CC50 for human A549 cells to MIC for Aspergillus terreus ATCC MYA-3633; format: toxicity; conditions: read-out: Selectivity Index
[33] = Selectivity index, ratio of CC50 for human A549 cells to MIC for Aspergillus flavus ATCC MYA-3631; format: toxicity; conditions: read-out: Selectivity Index
[34] = system: Aspergillus terreus; assay: Antifungal activity against Aspergillus terreus ATCC MYA-3633 measured after 48 hrs by CLSI M38-A2 protocol based method; format: functional; conditions: ATCC MYA-3633, 48 h
[35] = Selectivity index, ratio of CC50 for human A549 cells to MIC for fluconazole/ITC-susceptible Candida albicans ATCC MYA-2876; format: toxicity; conditions: read-out: Selectivity Index
[36] = Selectivity index, ratio of compound concentration showing <20 to <30% hemolysis in mouse RBC to MIC for Aspergillus terreus ATCC MYA-3633; format: toxicity; conditions: mouse red blood cells (RBC), read-out: Selectivity Index
[37] = Selectivity index, ratio of CC50 for human A549 cells to MIC for fluconazole/ITC-resistant Candida albicans ATCC 64124; format: toxicity; conditions: read-out: Selectivity Index
[38] = Selectivity index, ratio of compound concentration showing <20 to <30% hemolysis in mouse RBC to MIC for fluconazole/ITC-resistant Candida albicans ATCC 90819; format: toxicity; conditions: red blood cells (erythrocytes), read-out: Selectivity Index
[39] = Hemolytic activity in mouse RBC at 31.3 ug/ml after 1 hr relative to control; format: ADME, cell-based, Erythrocyte; conditions: red blood cells (erythrocytes), read-out: Activity
[40] = Selectivity index, ratio of compound concentration showing <20 to <30% hemolysis in mouse RBC to MIC for fluconazole/ITC-resistant Candida albicans ATCC MYA-1003; format: toxicity; conditions: mouse red blood cells (RBC), read-out: Selectivity Index
[41] = Selectivity index, ratio of compound concentration showing <20 to <30% hemolysis in mouse RBC to MIC for Aspergillus flavus ATCC MYA-3631; format: toxicity; conditions: mouse red blood cells (RBC), read-out: Selectivity Index
[42] = Selectivity index, ratio of CC50 for human A549 cells to MIC for Candida krusei ATCC 6258; format: toxicity; conditions: read-out: Selectivity Index
[43] = Selectivity index, ratio of CC50 for human A549 cells to MIC for Candida parapsilosis ATCC 22019; format: toxicity; conditions: read-out: Selectivity Index
[44] = Selectivity index, ratio of compound concentration showing <20 to <30% hemolysis in mouse RBC to MIC for fluconazole/ITC-susceptible Candida albicans ATCC MYA-2876; format: toxicity; conditions: red blood cells (erythrocytes), read-out: Selectivity Index
[45] = system: Candida albicans; assay: Antifungal activity against fluconazole/ITC-resistant Candida albicans ATCC 10231 measured after 48 hrs by CLSI M27-A3 protocol based method; format: functional; conditions: ATCC 10231, 48 h
[46] = system: Candida albicans; assay: Antifungal activity against fluconazole/ITC-susceptible Candida albicans ATCC MYA-2310 measured after 48 hrs by CLSI M27-A3 protocol based method; format: functional; conditions: ATCC MYA-2310, 48 h
[47] = Selectivity index, ratio of CC50 for human A549 cells to MIC for fluconazole/ITC-susceptible Candida albicans ATCC MYA-2310; format: toxicity; conditions: read-out: Selectivity Index
[48] = system: Nakaseomyces glabratus; assay: Antifungal activity against Candida glabrata ATCC 2001 measured after 48 hrs by CLSI M27-A3 protocol based method; format: functional; conditions: CBS 138, 48 h
[49] = Selectivity index, ratio of compound concentration showing <20 to <30% hemolysis in mouse RBC to MIC for fluconazole/ITC-resistant Candida albicans ATCC 64124; format: toxicity; conditions: red blood cells (erythrocytes), read-out: Selectivity Index
[50] = system: Candida albicans; assay: Antifungal activity against fluconazole/ITC-resistant Candida albicans ATCC 90819 measured after 48 hrs by CLSI M27-A3 protocol based method; format: functional; conditions: ATCC 90819, 48 h
[51] = system: Candida albicans; assay: Antifungal activity against fluconazole/ITC-resistant Candida albicans ATCC 64124 measured after 48 hrs by CLSI M27-A3 protocol based method; format: functional; conditions: ATCC 64124, 48 h
[52] = Hemolytic activity in mouse RBC at 62.5 ug/ml after 1 hr relative to control; format: ADME, cell-based, Erythrocyte; conditions: red blood cells (erythrocytes), read-out: Activity

Sequence of Voltage-gated inwardly rectifying potassium channel KCNH2 (Q12809 whole entry): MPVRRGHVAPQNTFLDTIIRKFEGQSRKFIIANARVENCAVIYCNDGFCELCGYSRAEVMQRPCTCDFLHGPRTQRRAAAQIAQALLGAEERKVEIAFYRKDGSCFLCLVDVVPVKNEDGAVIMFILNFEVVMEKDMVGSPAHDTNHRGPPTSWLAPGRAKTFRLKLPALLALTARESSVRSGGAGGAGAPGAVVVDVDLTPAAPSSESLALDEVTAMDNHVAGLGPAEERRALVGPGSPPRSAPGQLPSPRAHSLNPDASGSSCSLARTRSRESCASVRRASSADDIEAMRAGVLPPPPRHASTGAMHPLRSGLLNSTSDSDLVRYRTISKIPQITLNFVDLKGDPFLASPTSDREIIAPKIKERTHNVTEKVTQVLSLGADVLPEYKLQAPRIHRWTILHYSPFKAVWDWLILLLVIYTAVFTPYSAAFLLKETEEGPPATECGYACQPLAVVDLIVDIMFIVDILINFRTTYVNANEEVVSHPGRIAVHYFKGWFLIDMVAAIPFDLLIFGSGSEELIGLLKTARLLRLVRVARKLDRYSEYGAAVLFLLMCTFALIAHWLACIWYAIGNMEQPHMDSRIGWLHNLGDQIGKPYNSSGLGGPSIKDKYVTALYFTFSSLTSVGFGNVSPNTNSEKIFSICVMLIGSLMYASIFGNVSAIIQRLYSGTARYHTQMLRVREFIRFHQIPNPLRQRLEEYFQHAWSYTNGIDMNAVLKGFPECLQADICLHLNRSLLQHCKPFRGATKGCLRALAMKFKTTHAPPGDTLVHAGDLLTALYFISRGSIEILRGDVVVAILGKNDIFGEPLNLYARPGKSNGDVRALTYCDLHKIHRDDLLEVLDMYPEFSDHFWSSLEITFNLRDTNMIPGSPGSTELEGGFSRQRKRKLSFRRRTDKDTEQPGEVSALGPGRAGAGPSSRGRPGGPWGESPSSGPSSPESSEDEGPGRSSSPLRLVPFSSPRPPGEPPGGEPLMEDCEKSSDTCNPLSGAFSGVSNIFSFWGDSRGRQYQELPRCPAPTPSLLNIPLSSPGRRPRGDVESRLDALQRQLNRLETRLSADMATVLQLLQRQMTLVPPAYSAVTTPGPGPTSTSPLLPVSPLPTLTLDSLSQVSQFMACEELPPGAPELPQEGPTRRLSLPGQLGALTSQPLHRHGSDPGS

SMILES: COc1ccc(N/N=C/c2ccc(-c3ccc(/C=N/Nc4ccc(OC)cc4)cc3)cc2)cc1
- hemolysis at 1 h, […] [1]: 1.2%
- selectivity ratio [2]: 4
- MIC [3]: 7.8 mg/L (≈ 17.3 µM)
- selectivity ratio [4]: 4
- selectivity ratio [5]: 1 to 32
- CC50 [6]: > 31 mg/L
- selectivity ratio [7]: 1 to 32
- MIC [8]: 15.6 mg/L (≈ 34.6 µM)
- selectivity ratio [9]: 4
- CC50 [10]: 16.4 mg/L (≈ 36.4 µM)
- hemolysis at 1 h, 7.8 ug/ml [11]: 4.2%
- MIC [12]: 15.6 mg/L (≈ 34.6 µM)
- selectivity ratio [13]: 4
- Activity [14]: inactive
- selectivity ratio [15]: 1 to 32
- selectivity ratio [16]: 1 to 32
- MIC [17]: 7.8 mg/L (≈ 17.3 µM)
- selectivity ratio [18]: 2
- MIC [19]: > 31.3 mg/L
- MIC [20]: 7.8 mg/L (≈ 17.3 µM)
- pIC50 [21]: < 4.52
- selectivity ratio [22]: 1 to 32
- selectivity ratio [23]: 1 to 32
- hemolysis at 1 h, 15.6 ug/ml ([24]; at 15.6 µg/mL): 6.7%
- hemolysis at 1 h, 0.975 ug/ml [24]: 1.6%
- MIC [25]: 7.8 mg/L (≈ 17.3 µM)
- Activity [26]: inactive
- selectivity ratio [27]: 4
- selectivity ratio [28]: 1 to 32
- Activity [29]: inactive
- hemolysis at 1 h, 1.95 ug/ml [30]: 1.9%
- hemolysis at 1 h, 3.9 ug/ml [31]: 2.8%
- selectivity ratio [32]: 1
- selectivity ratio [33]: 1
- MIC [34]: > 31.3 mg/L
- selectivity ratio [35]: 4
- selectivity ratio [36]: 1 to 32
- selectivity ratio [37]: 8
- selectivity ratio [38]: 1 to 32
- hemolysis at 1 h, 31.3 ug/ml [39]: 12.6%
- selectivity ratio [40]: 1 to 32
- selectivity ratio [41]: 1 to 32
- selectivity ratio [42]: 4
- selectivity ratio [43]: 2
- selectivity ratio [44]: 1 to 32
- MIC [45]: 7.8 mg/L (≈ 17.3 µM)
- MIC [46]: 3.9 mg/L (≈ 8.66 µM)
- selectivity ratio [47]: 8
- MIC [48]: 7.8 mg/L (≈ 17.3 µM)
- selectivity ratio [49]: 1 to 32
- MIC [50]: 7.8 mg/L (≈ 17.3 µM)
- MIC [51]: 3.9 mg/L (≈ 8.66 µM)
- hemolysis at 1 h, 62.5 ug/ml [52]: 22.7%

Reference: ChEMBL document CHEMBL4411307, “N,N'-diaryl-bishydrazones in a biphenyl platform: Broad spectrum antifungal agents” (Eur J Med Chem, 2019)
